ChEMBL document CHEMBL2069245 (Bioorg Med Chem Lett, 2012)
In brackets after ≈: the same amount, converted by molar mass.

Experiments:
[1] = molecular target: Cytochrome P450 2C19 (Homo sapiens, UniProt P33261)
[2] = molecular target: Cytochrome P450 2D6 (Homo sapiens, UniProt P10635)
[3] = molecular target: Cytochrome P450 2C9 (Homo sapiens, UniProt P11712)
[4] = molecular target: Cytochrome P450 3A4 (Homo sapiens, UniProt P08684)
[5] = in vitro; settings: rat, liver microsomes
[6] = molecular target: T1, Cytochrome P450 1A2 (Homo sapiens, UniProt P05177)
T1 sequence (P05177 whole entry): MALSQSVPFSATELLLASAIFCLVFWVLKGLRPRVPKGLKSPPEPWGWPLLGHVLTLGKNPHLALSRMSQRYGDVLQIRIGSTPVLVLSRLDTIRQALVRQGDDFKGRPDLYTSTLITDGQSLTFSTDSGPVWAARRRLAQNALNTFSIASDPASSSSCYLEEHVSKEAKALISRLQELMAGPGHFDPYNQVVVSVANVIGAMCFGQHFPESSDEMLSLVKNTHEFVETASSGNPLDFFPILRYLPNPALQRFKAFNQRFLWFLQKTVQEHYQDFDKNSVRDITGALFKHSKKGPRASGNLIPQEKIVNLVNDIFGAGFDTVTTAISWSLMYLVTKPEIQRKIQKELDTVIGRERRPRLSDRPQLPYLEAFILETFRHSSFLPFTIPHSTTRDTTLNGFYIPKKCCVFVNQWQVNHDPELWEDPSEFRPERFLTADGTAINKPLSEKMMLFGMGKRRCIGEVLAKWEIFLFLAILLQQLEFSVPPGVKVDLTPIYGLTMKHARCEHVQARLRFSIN

[7] = in vitro; settings: human, liver microsomes
[8] = molecular target: T2, Neuropeptide Y receptor type 5 (Mus musculus, UniProt O70342); test: Displacement of [125I]PYY from mouse NPY Y5 receptor
T2 sequence (O70342 whole entry): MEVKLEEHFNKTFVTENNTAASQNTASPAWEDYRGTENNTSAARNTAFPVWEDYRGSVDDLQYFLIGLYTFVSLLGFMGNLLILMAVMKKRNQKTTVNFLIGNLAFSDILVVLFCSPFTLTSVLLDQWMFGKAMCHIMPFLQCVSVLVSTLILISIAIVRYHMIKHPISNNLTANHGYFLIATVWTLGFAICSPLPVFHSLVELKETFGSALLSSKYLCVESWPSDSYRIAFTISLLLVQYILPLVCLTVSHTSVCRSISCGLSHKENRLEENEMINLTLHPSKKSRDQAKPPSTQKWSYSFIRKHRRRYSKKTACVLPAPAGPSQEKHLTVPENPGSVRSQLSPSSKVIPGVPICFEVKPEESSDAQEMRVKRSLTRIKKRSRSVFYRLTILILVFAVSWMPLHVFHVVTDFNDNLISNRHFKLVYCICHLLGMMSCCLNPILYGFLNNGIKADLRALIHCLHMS

[9] = physchem; settings: 1% DMSO, pH 6.8

Cytochrome P450 2D6, sequence (P10635 whole entry): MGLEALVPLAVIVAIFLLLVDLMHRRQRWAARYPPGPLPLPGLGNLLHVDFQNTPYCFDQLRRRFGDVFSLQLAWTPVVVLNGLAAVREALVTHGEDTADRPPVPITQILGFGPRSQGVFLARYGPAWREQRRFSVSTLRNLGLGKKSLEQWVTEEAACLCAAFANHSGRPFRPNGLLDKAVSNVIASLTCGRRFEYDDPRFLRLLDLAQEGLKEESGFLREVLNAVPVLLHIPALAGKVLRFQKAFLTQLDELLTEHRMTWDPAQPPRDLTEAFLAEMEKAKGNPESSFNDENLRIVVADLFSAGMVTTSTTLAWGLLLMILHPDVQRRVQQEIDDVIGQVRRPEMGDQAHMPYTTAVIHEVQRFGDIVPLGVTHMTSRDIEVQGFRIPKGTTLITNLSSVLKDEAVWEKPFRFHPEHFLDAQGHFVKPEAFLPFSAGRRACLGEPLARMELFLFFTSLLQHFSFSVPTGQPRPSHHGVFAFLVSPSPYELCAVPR
Cytochrome P450 3A4, sequence (P08684 whole entry): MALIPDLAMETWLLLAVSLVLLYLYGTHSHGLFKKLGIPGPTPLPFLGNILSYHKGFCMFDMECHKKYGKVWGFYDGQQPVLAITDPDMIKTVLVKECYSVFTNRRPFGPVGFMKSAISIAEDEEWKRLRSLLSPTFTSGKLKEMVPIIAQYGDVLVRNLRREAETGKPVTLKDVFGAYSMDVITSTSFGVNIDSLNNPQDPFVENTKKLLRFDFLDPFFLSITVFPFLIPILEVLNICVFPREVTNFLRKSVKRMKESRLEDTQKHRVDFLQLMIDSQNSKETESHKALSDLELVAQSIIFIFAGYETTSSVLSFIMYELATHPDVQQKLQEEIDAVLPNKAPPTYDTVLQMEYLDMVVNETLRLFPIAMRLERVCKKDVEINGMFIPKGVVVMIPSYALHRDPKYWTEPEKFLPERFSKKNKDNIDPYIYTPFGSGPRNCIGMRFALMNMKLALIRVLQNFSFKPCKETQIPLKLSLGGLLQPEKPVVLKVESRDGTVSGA
Cytochrome P450 2C9, sequence (P11712 whole entry): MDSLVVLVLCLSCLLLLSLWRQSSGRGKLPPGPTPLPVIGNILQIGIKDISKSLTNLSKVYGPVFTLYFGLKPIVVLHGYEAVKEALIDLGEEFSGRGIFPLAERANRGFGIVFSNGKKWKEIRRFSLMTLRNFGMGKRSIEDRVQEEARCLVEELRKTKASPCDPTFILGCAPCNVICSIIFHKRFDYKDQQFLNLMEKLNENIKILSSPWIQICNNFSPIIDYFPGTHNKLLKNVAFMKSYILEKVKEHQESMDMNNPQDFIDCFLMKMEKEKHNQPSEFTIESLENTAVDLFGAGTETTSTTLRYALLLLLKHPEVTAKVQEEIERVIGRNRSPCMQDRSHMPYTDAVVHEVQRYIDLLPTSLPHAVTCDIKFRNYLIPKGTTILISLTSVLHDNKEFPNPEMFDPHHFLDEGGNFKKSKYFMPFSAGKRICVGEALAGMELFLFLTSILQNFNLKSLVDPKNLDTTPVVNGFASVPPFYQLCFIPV
Cytochrome P450 2C19, sequence (P33261 whole entry): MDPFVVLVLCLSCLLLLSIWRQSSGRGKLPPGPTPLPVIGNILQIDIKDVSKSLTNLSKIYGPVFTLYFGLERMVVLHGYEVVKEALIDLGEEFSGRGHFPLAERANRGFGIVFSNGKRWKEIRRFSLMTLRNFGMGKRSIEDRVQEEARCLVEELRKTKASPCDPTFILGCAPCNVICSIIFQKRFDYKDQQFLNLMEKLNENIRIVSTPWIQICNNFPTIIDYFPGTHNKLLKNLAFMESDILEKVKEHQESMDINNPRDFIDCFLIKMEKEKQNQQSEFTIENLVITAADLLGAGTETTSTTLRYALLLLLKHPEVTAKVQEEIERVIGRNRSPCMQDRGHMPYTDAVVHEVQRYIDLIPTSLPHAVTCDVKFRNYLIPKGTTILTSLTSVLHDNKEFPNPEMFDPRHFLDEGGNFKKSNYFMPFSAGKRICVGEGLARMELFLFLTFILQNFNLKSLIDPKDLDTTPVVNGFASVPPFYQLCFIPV

CCCS(=O)(=O)c1ccc2[nH]c(-c3ccc(=O)n(-c4ccccc4)c3)nc2c1
IC50 [1]: > 20 µM
IC50 [2]: > 20 µM
IC50 [3]: > 20 µM
IC50 [4]: > 20 µM
remaining at 0.5 h [5]: 78.6%
IC50 [6]: > 20 µM
remaining at 0.5 h [7]: 88.5%

O=c1ccc(-c2nc3ccc(S(=O)(=O)C(F)(F)F)cc3[nH]2)cn1-c1ccccc1
IC50 [8]: 0.0025 µM

CCCS(=O)(=O)c1ccc2nc(-c3ccccc3)[nH]c2c1
IC50 [8]: 4.66 µM
IC50 [2]: > 20 µM
solubility kinetic [9]: > 50 µM
IC50 [4]: > 20 µM
IC50 [6]: 2.9 µM

CCCS(=O)(=O)c1ccc2nc(-c3cn(-c4ccccc4)ccc3=O)[nH]c2c1
IC50 [8]: 0.579 µM
IC50 [1]: > 20 µM
IC50 [2]: > 20 µM
IC50 [3]: > 20 µM
solubility kinetic [9]: 2 µM (≈ 0.787 µg/mL)
IC50 [4]: > 20 µM
IC50 [6]: > 20 µM

CCS(=O)(=O)c1ccc2nc(-c3ccc(F)c(-c4ccccc4)c3)[nH]c2c1
IC50 [8]: 0.00016 µM
IC50 [2]: 16 µM
solubility kinetic [9]: 0.2 µM (≈ 0.0761 µg/mL)
IC50 [4]: 5.6 µM
IC50 [6]: 3.4 µM

O=c1ccc(-c2nc3cc(S(=O)(=O)CC(F)(F)F)ccc3[nH]2)cn1-c1ccccc1
IC50 [8]: 0.00029 µM
IC50 [2]: > 20 µM
solubility kinetic [9]: 7.7 µM (≈ 3.34 µg/mL)
IC50 [4]: > 20 µM
remaining at 0.5 h [5]: 93.6%
IC50 [6]: > 20 µM
remaining at 0.5 h [7]: 94.7%

CCS(=O)(=O)c1ccc2[nH]c(-c3cccc(-c4ccccc4)n3)nc2c1
IC50 [8]: 0.0389 µM

CCCS(=O)(=O)c1ccc2nc(-c3ccc(-c4ccccc4)cc3)[nH]c2c1
IC50 [2]: 15 µM
IC50 [4]: 2.9 µM
IC50 [6]: > 20 µM

CC(C)(C)S(=O)(=O)c1ccc2nc(-c3ccc(=O)n(-c4ccccc4)c3)[nH]c2c1
IC50 [8]: 0.0075 µM
IC50 [2]: > 20 µM
solubility kinetic [9]: 9.4 µM (≈ 3.83 µg/mL)
IC50 [4]: > 20 µM
remaining at 0.5 h [5]: > 99.9%
IC50 [6]: > 20 µM
remaining at 0.5 h [7]: 94.2%

CCS(=O)(=O)c1ccc2nc(-c3cccc(-c4ccccc4)c3F)[nH]c2c1
IC50 [8]: 0.0027 µM
IC50 [2]: > 20 µM
solubility kinetic [9]: 0.6 µM (≈ 0.228 µg/mL)
IC50 [4]: 6.6 µM
IC50 [6]: 1.1 µM

CCS(=O)(=O)c1ccc2[nH]c(-c3cccc(-c4ccccc4)c3Cl)nc2c1
IC50 [8]: 0.0405 µM
IC50 [2]: 18 µM
solubility kinetic [9]: 1.5 µM (≈ 0.595 µg/mL)
IC50 [4]: 3.8 µM
IC50 [6]: 3 µM

CCCS(=O)(=O)c1ccc2[nH]c(-c3cccn(-c4ccccc4)c3=O)nc2c1
IC50 [1]: > 20 µM
IC50 [2]: > 20 µM
IC50 [3]: > 20 µM
IC50 [4]: > 20 µM
IC50 [6]: > 20 µM

CCCS(=O)(=O)c1ccc2nc(-c3cccc(OC(F)(F)F)c3)[nH]c2c1
IC50 [8]: 0.0019 µM

CCS(=O)(=O)c1ccc2[nH]c(-c3cncc(-c4ccccc4)c3)nc2c1
IC50 [2]: > 20 µM
IC50 [4]: 7.8 µM
IC50 [6]: 6.3 µM

CCCS(=O)(=O)c1ccc2[nH]c(-c3cccc(-c4ccccc4)c3)nc2c1
IC50 [8]: 0.00043 µM
IC50 [2]: > 20 µM
solubility kinetic [9]: 0.5 µM (≈ 0.188 µg/mL)
IC50 [4]: 6 µM
remaining at 0.5 h [5]: 57.1%
IC50 [6]: 2.7 µM
remaining at 0.5 h [7]: 68.6%

CCS(=O)(=O)c1ccc2[nH]c(-c3ccnc(-c4ccccc4)c3)nc2c1
IC50 [8]: 0.00031 µM
IC50 [2]: > 20 µM
solubility kinetic [9]: 20.3 µM (≈ 7.38 µg/mL)
IC50 [4]: 8.7 µM
IC50 [6]: 3.4 µM

CCS(=O)(=O)c1ccc2[nH]c(-c3ccc(Cl)c(-c4ccccc4)c3)nc2c1
IC50 [8]: 0.00016 µM
IC50 [2]: 18 µM
IC50 [4]: 2.6 µM
IC50 [6]: 8.5 µM

CCCS(=O)(=O)c1ccc2[nH]c(-c3ccccc3-c3ccccc3)nc2c1
IC50 [8]: 4.06 µM
IC50 [1]: > 20 µM
IC50 [2]: 15 µM
IC50 [3]: 4.5 µM
solubility kinetic [9]: 23.6 µM (≈ 8.88 µg/mL)
IC50 [4]: 11 µM
IC50 [6]: > 20 µM

CCS(=O)(=O)c1ccc2nc(-c3cc(-c4ccccc4)ccn3)[nH]c2c1
IC50 [8]: 0.00055 µM

CCS(=O)(=O)c1ccc2nc(-c3cc(-c4ccccc4)ccc3Cl)[nH]c2c1
IC50 [8]: 0.0311 µM
IC50 [2]: 15 µM
solubility kinetic [9]: 0.4 µM (≈ 0.159 µg/mL)
IC50 [4]: 5 µM
IC50 [6]: 0.4 µM

CCCS(=O)(=O)c1ccc2nc(-c3cccc(C(F)(F)F)c3)[nH]c2c1
IC50 [2]: > 20 µM
IC50 [4]: 20 µM
IC50 [6]: 0.4 µM

CCS(=O)(=O)c1ccc2nc(-c3cccc(-c4ccccc4)c3C)[nH]c2c1
IC50 [8]: 0.0218 µM
IC50 [2]: > 20 µM
solubility kinetic [9]: 3.2 µM (≈ 1.2 µg/mL)
IC50 [4]: 5.2 µM
IC50 [6]: 7.8 µM

CCS(=O)(=O)c1ccc2nc(-c3ccc(C)c(-c4ccccc4)c3)[nH]c2c1
IC50 [2]: > 20 µM
IC50 [4]: 5.7 µM
IC50 [6]: 3.2 µM

CCS(=O)(=O)c1ccc2nc(-c3cc(-c4ccccc4)ccc3C)[nH]c2c1
IC50 [8]: 0.383 µM
IC50 [2]: 14 µM
solubility kinetic [9]: 0.5 µM (≈ 0.188 µg/mL)
IC50 [6]: 0.4 µM

CCS(=O)(=O)c1ccc2[nH]c(-c3cccc(-c4ccccc4)c3)nc2c1
IC50 [8]: 0.00046 µM

CCS(=O)(=O)c1ccc2[nH]c(-c3cc(-c4ccccc4)ccc3F)nc2c1
IC50 [8]: 0.00054 µM
